From patent US20250136568A1, “FUSED HETEROCYCLIC COMPOUNDS AS PI3KALPHA INHIBITORS” (Nanjing Zenshine Pharmaceuticals Co., Ltd., priority 2021, published 2025)
Like-named read-outs stand apart in the source and are kept apart here.

How the values were obtained:
[1] = test system: PI3Kα H1047R mutation cell line T-47D; assay: Cell Proliferation IC50 Assay (CellTiter-Glo), T-47D; assay type: cell-based; conditions: Homo sapiens, T47D (H1047R), 72 hours, CellTiter-Glo, read-out: IC50 (μM) T47D
Method in brief: (§1)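 Read-out was CellTiter-Glo luminescence after 72 h of compound exposure at 37 °C, 5% CO2. Cells had been plated overnight in complete medium before the compound was added at a 200-fold final dilution. IC50 was derived from percent inhibition.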

[2] = test system: PI3Kα wide type cell line SK-BR-3; assay: Cell Proliferation IC50 Assay (CellTiter-Glo), SK-BR-3; assay type: cell-based; conditions: Homo sapiens; SK-BR-3 (PI3Kα wild type), 72 hours, CellTiter-Glo; read-out: IC50 (μM) SK-BR-3
Method in brief: as §1

PI3Kα WT = PI3Kα WT (Homo sapiens, UniProt P42336); assay: pAKT (S473) ELISA assay in WT cell line (SK-BR-3); assay type: cell-based; conditions: SK-BR-3 cells, two hours compound, IGF-1 50 ng/ml stimulation
Description: (§2) Cells were serum starved for 4 hours prior to compound treatment; compound solution was added to each well (3-fold serial dilution starting at desired concentration) for two hours in serum-free medium, followed by stimulation with IGF-1 for 60 minutes at a final concentration of 50 ng/ml as noted. After compound treatment and stimulation, discarded the supernatant and cells were lysed by cell lysis buffer (Cell Signaling Technology, #9803S). The lysate was transferred to the ELISA plate, the Phospho-AKT (Ser473) ELISA was performed as the manufacturer's directions (Cell Signaling Technology, #7160CA).

PI3Kβ = target: T1, PI3Kβ (Homo sapiens, UniProt P42338); assay: Selectivity study, p-AKT (Ser473) HTRF assay in 786-O cells; assay type: cell-based; conditions: 786-O cell, 1 hour incubation, serum-free medium
T1 construct: endogenous in cells; host or cells: 786-O
Description: The following day, the complete medium was replaced with serum-free medium, 3-fold serial diluted compound solution in serum-free medium was added to each well according to the plate map. After 1 hour incubation, removed cell supernatant carefully and added supplemented lysis buffer (1×) for 45 min. The lysate was transferred to a 384-well small volume white plate, the CisBio Phospho-AKT (Ser473) HTRF assay was performed as the manufacturer's directions (Cisbio, #64AKSPEG).

in vivo = conditions: male, CD1, mouse
Description: (§3) Dosing solutions were prepared at 0.5 mg/mL in 10% DMSO/10% HP—3-CD/80% water. A dosing solution was administered to Male CD1 mice (4-6 weeks, 20-30 g, 3 mice each group) via intravenous (TV) bolus at 1 mg/kg and by oral gavage (PO) at 5 mg/kg. The dose formulations were kept at room temperature and administrated within 30 mins for IV/PO. Blood samples (0.3 mL each time point) were collected into tubes containing ethylenediaminetetraacetic acid (K2EDTA) as the anticoagulant at 0, 0033, 0.083, 0.25, 05, 1, 2, 4, 8 and 24 hours post dose for IV administrated and 0, 0.083, 0.25, 0.5, 1, 2, 4, 8 and 24 hours post dose for PO administration. The blood sample were then centrifuged for 5 minutes in centrifuge refrigerated at 4° C. The samples were stored in a freezer at −75±15° C. prior to analysis. Concentrations of Compound in the plasma samples were analyzed using a LC-MS/MS method. WinNonlin (Phoenix™, version 8.3) or other similar software were used for pharmacokinetic calculations. The following pharmacokinetic parameters were calculated, whenever possible from the plasma concentration versus time data: MRT, Cmax, Tmax, AUClast, AUCinf, F %, Number of Points for Regression.

PI3Kα H1047R mutant = PI3Kα H1047R mutant (Homo sapiens, UniProt P42336, H1047R); assay: pAKT (S473) ELISA assay in PI3Kα H1047R mutant cell line (T47D); assay type: cell-based; conditions: T47D cells, two hours compound, IGF-1 50 ng/ml stimulation
Description: as §2

[3] = In vivo pharmacokinetics in mice; conditions: male, CD1, mouse, plasma
Description: as §3

[4] = test system: PI3Kα H1047R mutation cell line MDA-MB-453; assay: Cell Proliferation IC50 Assay (CellTiter-Glo), MDA-MB-453; assay type: cell-based; conditions: Homo sapiens; MDA-MB-453 (H1047R), 72 hours, CellTiter-Glo; read-out: IC50 (μM) MDA-MB-453
Method in brief: as §1

Chain of PI3Kα H1047R mutant (P42336 whole entry H1047R): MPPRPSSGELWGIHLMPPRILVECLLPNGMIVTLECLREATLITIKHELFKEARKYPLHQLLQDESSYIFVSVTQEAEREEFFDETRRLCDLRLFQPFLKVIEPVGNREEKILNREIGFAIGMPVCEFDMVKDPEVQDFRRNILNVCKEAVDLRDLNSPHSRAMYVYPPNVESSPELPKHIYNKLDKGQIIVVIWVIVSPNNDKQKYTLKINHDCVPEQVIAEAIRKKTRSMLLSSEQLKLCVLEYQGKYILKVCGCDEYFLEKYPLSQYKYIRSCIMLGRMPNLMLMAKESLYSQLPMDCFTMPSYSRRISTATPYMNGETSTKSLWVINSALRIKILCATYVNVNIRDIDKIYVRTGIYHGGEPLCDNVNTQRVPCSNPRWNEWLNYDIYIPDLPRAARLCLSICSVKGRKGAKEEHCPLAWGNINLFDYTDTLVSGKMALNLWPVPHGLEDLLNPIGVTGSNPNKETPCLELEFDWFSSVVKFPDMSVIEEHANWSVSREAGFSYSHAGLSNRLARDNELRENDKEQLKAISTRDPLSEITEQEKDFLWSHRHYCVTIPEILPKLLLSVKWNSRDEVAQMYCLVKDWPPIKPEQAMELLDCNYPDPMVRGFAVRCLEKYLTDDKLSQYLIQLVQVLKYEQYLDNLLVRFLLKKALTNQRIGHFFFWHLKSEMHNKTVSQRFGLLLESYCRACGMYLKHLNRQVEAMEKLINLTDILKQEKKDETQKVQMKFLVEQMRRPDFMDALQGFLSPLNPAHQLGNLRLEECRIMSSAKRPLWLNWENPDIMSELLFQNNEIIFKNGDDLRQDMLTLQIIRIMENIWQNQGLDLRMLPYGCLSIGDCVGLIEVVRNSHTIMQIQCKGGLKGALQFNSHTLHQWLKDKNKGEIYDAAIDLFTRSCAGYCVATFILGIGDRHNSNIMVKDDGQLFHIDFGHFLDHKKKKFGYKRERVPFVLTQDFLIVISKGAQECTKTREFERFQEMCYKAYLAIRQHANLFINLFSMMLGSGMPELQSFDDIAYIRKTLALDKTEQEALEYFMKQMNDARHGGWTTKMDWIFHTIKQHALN
Chain of PI3Kα H1047R mutant (P27986 whole entry partner): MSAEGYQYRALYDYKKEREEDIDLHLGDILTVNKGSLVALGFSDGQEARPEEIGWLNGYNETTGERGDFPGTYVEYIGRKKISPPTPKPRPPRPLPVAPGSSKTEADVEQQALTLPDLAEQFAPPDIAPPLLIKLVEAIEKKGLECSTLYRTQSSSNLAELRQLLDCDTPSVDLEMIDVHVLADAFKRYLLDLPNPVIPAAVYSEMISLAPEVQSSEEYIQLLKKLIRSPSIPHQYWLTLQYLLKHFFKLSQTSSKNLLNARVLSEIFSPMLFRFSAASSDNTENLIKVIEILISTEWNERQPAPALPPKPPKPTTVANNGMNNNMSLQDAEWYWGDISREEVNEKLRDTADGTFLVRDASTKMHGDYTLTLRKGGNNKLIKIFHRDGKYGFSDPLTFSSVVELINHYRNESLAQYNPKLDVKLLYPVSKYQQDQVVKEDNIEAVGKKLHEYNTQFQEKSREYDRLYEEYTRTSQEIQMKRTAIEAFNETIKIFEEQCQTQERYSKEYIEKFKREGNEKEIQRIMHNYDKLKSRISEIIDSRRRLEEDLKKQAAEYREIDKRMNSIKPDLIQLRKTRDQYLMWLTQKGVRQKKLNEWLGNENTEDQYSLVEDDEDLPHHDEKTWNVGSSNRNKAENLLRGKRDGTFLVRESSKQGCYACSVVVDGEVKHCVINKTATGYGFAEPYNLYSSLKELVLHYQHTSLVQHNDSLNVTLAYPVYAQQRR
T1 sequence (P42338 whole entry): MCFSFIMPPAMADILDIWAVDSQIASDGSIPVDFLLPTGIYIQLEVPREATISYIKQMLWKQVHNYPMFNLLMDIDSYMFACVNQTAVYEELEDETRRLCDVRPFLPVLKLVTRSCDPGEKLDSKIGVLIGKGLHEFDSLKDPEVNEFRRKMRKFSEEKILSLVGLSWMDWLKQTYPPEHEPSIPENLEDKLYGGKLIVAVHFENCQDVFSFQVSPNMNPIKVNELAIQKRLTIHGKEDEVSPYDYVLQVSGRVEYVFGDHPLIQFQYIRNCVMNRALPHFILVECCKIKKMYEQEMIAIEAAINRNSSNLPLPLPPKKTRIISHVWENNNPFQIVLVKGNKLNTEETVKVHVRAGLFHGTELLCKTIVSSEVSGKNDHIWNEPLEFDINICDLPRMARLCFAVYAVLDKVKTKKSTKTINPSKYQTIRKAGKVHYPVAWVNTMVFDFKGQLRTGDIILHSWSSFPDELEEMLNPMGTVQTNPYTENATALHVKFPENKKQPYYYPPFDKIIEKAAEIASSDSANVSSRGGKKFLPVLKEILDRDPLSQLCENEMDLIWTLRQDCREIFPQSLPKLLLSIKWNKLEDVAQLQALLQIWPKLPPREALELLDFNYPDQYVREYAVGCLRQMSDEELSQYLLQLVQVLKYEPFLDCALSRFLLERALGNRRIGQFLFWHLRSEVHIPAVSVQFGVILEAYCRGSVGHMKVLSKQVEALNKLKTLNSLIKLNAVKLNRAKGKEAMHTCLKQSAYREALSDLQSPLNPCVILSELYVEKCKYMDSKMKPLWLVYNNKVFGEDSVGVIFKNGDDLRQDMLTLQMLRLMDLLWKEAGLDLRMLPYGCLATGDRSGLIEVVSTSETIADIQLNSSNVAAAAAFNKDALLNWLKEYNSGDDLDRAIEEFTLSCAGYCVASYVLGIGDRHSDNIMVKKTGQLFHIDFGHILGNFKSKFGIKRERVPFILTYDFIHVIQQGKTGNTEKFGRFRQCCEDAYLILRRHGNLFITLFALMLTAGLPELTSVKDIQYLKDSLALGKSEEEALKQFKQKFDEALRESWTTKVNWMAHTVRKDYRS
T1 sequence (P27986 whole entry partner): as the sequence (P27986 whole entry partner) above
Chain of PI3Kα WT (P42336 whole entry): as the sequence (P42336 whole entry H1047R) above, with R1047H counted along it
Chain of PI3Kα WT (P27986 whole entry partner): as the sequence (P27986 whole entry partner) above

Structure (SMILES) | IC50 [1] [µM] | IC50 [2] [µM] | IC50 (PI3Kα WT) [nM] | IC50 (PI3Kβ) [nM] | bioavailability (in vivo) [%] | clearance (in vivo) [mL/min/kg] | IC50 (PI3Kα H1047R mutant) [nM] | IC50 ([1]; T47D, 72 h) [µM] | clearance ([3]; intravenous, 1 mg/kg) [mL/min/kg] | bioavailability ([3]; oral, 5 mg/kg) [%] | IC50 [4] [µM]
Cc1cc([C@@H](C)Nc2ccccc2C(=O)O)c2oc(-c3ccc(CN4CCN(C)CC4)cc3)c(C)c(=O)c2c1 [Example 147, 2-[[(1R)-1-[3,6-dimethyl-2-[4-[(4-methylpiperazin-1-yl)methyl]phenyl]-4-oxo-chromen-8-yl]ethyl]amino]benzoic acid] | 0.055 | > 10 | 6130 | > 10000 | 46.5 | 10.9 | 46.5 | – | – | – | –
Cc1cc([C@@H](C)Nc2ccccc2C(=O)O)c2oc(-c3ccc(-c4cnn(C)c4)nc3)c(C)c(=O)c2c1 [Example 150, (R)-2-((1-(3,6-dimethyl-2-(6-(1-methyl-H-pyrazol-4-yl)pyridin-3-yl)-4-oxo-41-chromen-8-yl)ethyl)amino)benzoic acid] | – | > 10 | 2370 | > 10000 | – | – | 25 | 0.064 | 3.75 | 58.2 | 0.13
